Test results as given in the NIST ThermoML archive (doi:10.1016/j.jct.2010.11.001).

Details: Liquid, Closed cell (Static) method

CCC [propane]
Details | vapor or sublimation pressure [kPa]
233.22 K | 111.3
235.21 K | 121.3
237.18 K | 131.7
239.2 K | 143.2
241.22 K | 155.4
243.21 K | 168.2
245.26 K | 182.1
247.13 K | 195.6
249.14 K | 211.1
251.14 K | 227.4
253.14 K | 244.5
255.14 K | 262.5
257.13 K | 281.5
259.15 K | 301.8
261.12 K | 322.7
263.15 K | 345.3
265.14 K | 368.6
267.14 K | 393.2
269.14 K | 419
271.14 K | 446.1
273.14 K | 474.3
275.14 K | 503.9
277.14 K | 535
279.15 K | 567.4
281.15 K | 601.4
283.15 K | 636.7
285.15 K | 673.5
287.14 K | 711.8
289.15 K | 752
291.16 K | 793.7
293.15 K | 836.8

FCC(F)(F)F [1,1,1,2-tetrafluoroethane]
Details | vapor or sublimation pressure [kPa]
243.14 K | 84.1
245.14 K | 92.4
247.14 K | 101.4
249.15 K | 111.1
251.16 K | 121.4
253.15 K | 132.5
255.14 K | 144.3
257.16 K | 157.1
259.17 K | 170.6
261.16 K | 185
263.14 K | 200.2
265.13 K | 216.4
267.13 K | 233.7
269.14 K | 252.1
271.14 K | 271.6
273.13 K | 292.1
275.13 K | 313.9
277.16 K | 337.2
279.16 K | 361.5
281.16 K | 387.3
283.17 K | 414.3
285.14 K | 442.1
287.15 K | 472.3
289.14 K | 503.4
291.14 K | 536.3
293.14 K | 570.9
